# In patent US12560591B2, “Methods of treatment with CD8 T cell-mediated immune therapy” (Providence Health & Services—Oregon, priority 2019, dated 2026):
# Experiments:
# Assay type in all cases: in vivo, mouse
# MC38 tumors = assay: MC38 tumor model in ALK5^ΔCD8 mice, survival and tumor growth; conditions: addition of LY2157299 in ALK5^ΔCD8 mice with MC38 tumors, FIGS. 5B and 5C
# Procedure: FIG. 5A is a schematic showing the treatment strategy in the MC38 tumor model. C57BL/6 Wild-type (n=6-9/group) and ALK5^ΔCD8 (n=4-10/group) mice were implanted subcutaneously with MC38 tumor cells followed four days later by injection of some groups with anti-CD8a mAb to specifically deplete CD8^+ T cells. In other groups, mice also received LY2157299 via oral gavage twice daily (150 mg/kg) for seven days. Survival of mice was monitored until day 90 (FIG. 5B). […] The number of tumors cured over the total number of tumor-bearing mice is shown in the top right of each graph. Data from a representative experiment is shown reflective of two independent experiments total. ***=p<0.001.
# Animal studies and cell culture: C57BL/6, BALB/c, CD8Cre, Lyz2Cre, and Foxp3-eGFP-CreERT2 mice were purchased from the Jackson Laboratories (Bar Harbor, Maine). ALK5flox/flox mice were a generous gift from Andrew Weinberg (Providence Cancer Center). All transgenic mice were on C57BL/6 background. […] Tumors were measured 3×/week until they reached the survival end-point of 144 mm^2. […] Following single cell preparation, cells were washed and resuspended in FACS buffer (1×PBS, 1% BSA, 2 mM EDTA) and counted prior to FACS staining using a Guava EasyCyte cytometer (Millipore). […]
# Whether the improved survival and radiosensitivity observed in ALK5^ΔCD8 mice was dependent on CD8^+ T cells was next evaluated. […]
# CXCR3^+CD8^+ T cells = assay: FACS analysis of CXCR3^+CD8^+ T cells in CT26 tumor bearing mice; conditions: preclinical modeling, 7 days treatment, FIG. 10E
# Procedure: FIGS. 10A-10E show CD8^+ T cell proliferation is suppressed by the tumor microenvironment, but TGF13 inhibition can increase tumor trafficking. […] Ki67^+CD8^+ T cells was determined by FACS analysis of lymph nodes and MC38 tumors of WT and ALK5^ΔCD8 mice (FIG. 10B).
# Flow Cytometry: For ex vivo cytokine analysis, cells were first treated with a 1× cell activation cocktail of PMA/ionomycin/Brefeldin A (Biolegend) for 5 hours in complete RPMI media. One million cells from single cell suspensions were stained with anti-CD16/CD32 Fc block (1:200, BD Biosciences) and fixable viability 700 dye (1:10,000, BD Biosciences) in 1×PBS for 15 min. at 37° C. prior to surface and intracellular staining with primary antibodies. Surface staining commenced in 200 μl FACS buffer supplemented with a 1:4 dilution of Brilliant Violet stain buffer (BD Biosciences) and fluorescently conjugated antibodies (Table 1) for 30 min at 4° C. in the dark; all are mouse reactive antibodies unless otherwise indicated. Following surface staining cells were washed and fixed in either 2% PFA or Fix/Perm buffer (eBioscience) for 20 min at 4° C. for intracellular stain. Fix/perm buffer was washed with 1× perm wash buffer (eBioscience) and intracellular proteins were stained with fluorescently conjugated ICS antibodies in perm wash buffer for 30 min. at 4° C. in the dark. […]
# [1] = system: tumor infiltrating immune cells; assay: FACS analysis of tumor-infiltrating immune cells after LY treatment
# [2] = LY-treated vs vehicle animals, day 14, FIG. 8E
structure (smiles),measurement,setting,value
Cc1cccc(-c2nn3c(c2-c2ccnc4ccc(C(N)=O)cc24)CCC3)n1 [LY2157299],survival or tumor growth kinetics,MC38 tumors,no improvement in survival or tumor growth kinetics
same,CXCR3^+CD8^+ T cells following treatment,CXCR3^+CD8^+ T cells,increase in CXCR3^+CD8^+ T cells
same,tumor-infiltrating effector population (tSNE of flow cytometric data),"[1]; LY versus vehicle control treated animals, data not shown",enrichment of the tumor-infiltrating effector population
same,CD8^+ T cells infiltrating tumors,[1]; [2],more CD8^+ T cells
same,macrophages and Tregs infiltrating tumors,[1]; [2],fewer macrophages and Tregs
same,percentage of CD8^+ T cells expressing EOMES and Tbet,"[1]; spleens, lymph nodes and CT26 tumors of LY-treated mice, FIG. 8F",increase
